Positions count from the first letter of the chain named. Where a SMILES comes first, the peptide text is derived from it.
What was measured:
[1] = target: T1, hTAS1R2 + hTAS1R3 R723A^5.36 (Homo sapiens, UniProt Q7RTX0+Q8TE23, R723A); test: Calcium response (FLIPR), hTAS1R3 mutant coexpressed with hTAS1R2; format: cell-based; conditions: variant R723A^5.36; for Emax: read-out: maximal signal (% of wt)
T1 construct: expressed in transfected cells; host or cells: HEK293T cells stably expressing G16Gust44
T1 sequence (Q8TE23 20-839): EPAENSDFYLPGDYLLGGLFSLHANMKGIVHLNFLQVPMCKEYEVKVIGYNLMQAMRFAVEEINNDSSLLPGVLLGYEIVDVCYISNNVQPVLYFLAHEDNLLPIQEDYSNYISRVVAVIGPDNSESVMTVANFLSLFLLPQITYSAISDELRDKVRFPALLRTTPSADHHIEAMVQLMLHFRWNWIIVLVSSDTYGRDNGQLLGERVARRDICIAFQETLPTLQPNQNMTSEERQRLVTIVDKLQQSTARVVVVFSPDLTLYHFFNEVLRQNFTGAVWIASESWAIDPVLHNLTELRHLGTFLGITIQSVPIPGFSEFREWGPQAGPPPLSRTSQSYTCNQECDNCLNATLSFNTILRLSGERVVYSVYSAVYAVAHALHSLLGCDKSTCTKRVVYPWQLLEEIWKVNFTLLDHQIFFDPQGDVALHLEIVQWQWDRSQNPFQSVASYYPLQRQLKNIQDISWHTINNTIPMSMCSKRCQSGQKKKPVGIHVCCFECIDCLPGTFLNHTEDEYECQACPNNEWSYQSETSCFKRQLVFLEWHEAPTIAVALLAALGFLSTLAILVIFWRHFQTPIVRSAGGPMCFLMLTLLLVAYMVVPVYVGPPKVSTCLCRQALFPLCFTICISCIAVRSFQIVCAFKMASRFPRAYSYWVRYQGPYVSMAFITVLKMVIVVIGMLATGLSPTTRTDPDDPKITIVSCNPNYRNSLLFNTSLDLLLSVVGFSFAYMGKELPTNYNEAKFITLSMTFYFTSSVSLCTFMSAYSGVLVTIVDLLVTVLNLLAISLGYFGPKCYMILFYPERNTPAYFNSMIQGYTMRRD
T1 sequence (Q7RTX0 21-852 R723A): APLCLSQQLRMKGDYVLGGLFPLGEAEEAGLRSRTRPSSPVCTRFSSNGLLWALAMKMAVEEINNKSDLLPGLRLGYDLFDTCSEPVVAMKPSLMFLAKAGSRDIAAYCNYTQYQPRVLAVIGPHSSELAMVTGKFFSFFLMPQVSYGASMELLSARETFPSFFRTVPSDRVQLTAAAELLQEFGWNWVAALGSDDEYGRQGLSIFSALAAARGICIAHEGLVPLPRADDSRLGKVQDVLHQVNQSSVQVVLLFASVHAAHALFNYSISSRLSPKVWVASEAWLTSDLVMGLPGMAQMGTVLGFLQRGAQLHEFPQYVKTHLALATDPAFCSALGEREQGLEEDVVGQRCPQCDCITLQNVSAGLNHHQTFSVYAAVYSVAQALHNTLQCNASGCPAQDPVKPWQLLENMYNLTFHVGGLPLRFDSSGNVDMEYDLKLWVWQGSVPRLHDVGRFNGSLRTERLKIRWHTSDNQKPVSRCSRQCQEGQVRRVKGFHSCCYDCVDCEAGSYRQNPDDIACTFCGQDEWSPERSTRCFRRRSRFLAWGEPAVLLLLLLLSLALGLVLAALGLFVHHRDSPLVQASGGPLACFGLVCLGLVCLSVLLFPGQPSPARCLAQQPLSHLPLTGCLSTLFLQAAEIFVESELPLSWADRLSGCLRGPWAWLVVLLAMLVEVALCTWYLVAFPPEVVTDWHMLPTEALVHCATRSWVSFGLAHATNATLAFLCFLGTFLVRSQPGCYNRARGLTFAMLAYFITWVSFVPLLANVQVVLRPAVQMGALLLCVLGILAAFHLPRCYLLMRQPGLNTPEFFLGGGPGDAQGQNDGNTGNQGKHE
Summary of the method: (§1)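 Each mutant receptor pair was expressed transiently in G16Gust44-expressing HEK293T cells; stimuli dissolved in C1 solution triggered calcium responses, recorded by fluorometric imaging and scaled to baseline fluorescence (ΔF/F) after mock correction, from at least three experiments run in duplicate.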

[2] = target: T2, hTAS1R2 + hTAS1R3 S729A^5.42 (Homo sapiens, UniProt Q7RTX0+Q8TE23, S729A); test: as above; format: cell-based; conditions: variant S729A^5.42; for Emax: read-out: maximal signal (% of wt)
T2 construct: expressed in transfected cells; host or cells: HEK293T cells stably expressing G16Gust44
T2 sequence (Q8TE23 20-839): T1 sequence (Q8TE23 20-839)
T2 sequence (Q7RTX0 21-852 S729A): T1 sequence (Q7RTX0 21-852 R723A) with A703R, S709A
Summary of the method: as §1

| EC50 [1] | Emax [1] | EC50 [2] | Emax [2] | SMILES |
| --- | --- | --- | --- | --- |
| 200 ± 100 µM | 69 ± 71% | 200 ± 100 µM | 80 ± 16% | COc1ccc(CCC(=O)c2c(O)cc(O[C@@H]3O[C@H](CO)[C@@H](O)[C@H](O)[C@H]3O[C@@H]3O[C@@H](C)[C@H](O)[C@@H](O)[C@H]3O)cc2O)cc1O [NHDC, neohesperidin dihydrochalcone] |
| 1500 ± 500 µM | 68 ± 50% | 900 ± 400 µM | 72 ± 20% | COC(=O)[C@H](Cc1ccccc1)NC(=O)[C@@H](N)CC(=O)O [aspartame] (HELM PEPTIDE1{D.F.[CO[*:1]]}$$$$V2.0) |

Reference: paper PMC2099433, “The binding site for neohesperidin dihydrochalcone at the human sweet taste receptor” (BMC Structural Biology, 2007)
